# pIC50: −log10 of the molar value.
# Tests used:
# [1] = tested on: HCV; assay: Phase 1b clinical trial (MAD study), plasma HCV RNA; type: in vivo, human; details: for MEAN Δ change from baseline (log HCV RNA level): on-therapy analysis
# Description: A 14 day randomized, double-blind, placebo-controlled, sequential-group study of multiple ascending doses (MAD) included subjects with chronic HCV infection who were naïve to treatment. Subjects were enrolled in sequential, ascending dose cohorts with a target of 16 subjects (12 subjects receiving the BZF and 4 receiving placebo in each cohort). The first cohorts assessed the effect of the BZF as monotherapy compared to placebo. Subsequent cohorts were comprised of subjects who received pegylated interferon alfa-2b (PEG-Intron; 1.5 μg/kg/dose) administered subcutaneously on days −1 and 7 in combination with either placebo or the BZF administered orally (100 mg, 250 mg, 500 mg or 1000 mg every 12 hours, in combinations of 25 mg or 200 mg capsules) from days 1 to 14. […] The mean viral load for each treatment group at study entry was >6.0 log 10 UI/ml HCV RNA.
# [2] = biological target: T1, HCV NS5B protein (genotype 1b, BB7) (Hepatitis C virus genotype 1b, UniProt Q9WMX2); assay: Inhibition of viral RNA-dependent RNA polymerase (RdRp); type: biochemical; details: purified HCV NS5B, C-terminal 21 amino acids removed
# T1 construct: of which the carboxyl terminal 21 amino acids were removed to enhance its solubility; made in house; host or cells: E. coli
# Description: The HCV NS5B-directed RdRp activity was established and characterized in a standard in vitro biochemical assay using a purified HCV NS5B protein derived from the consensus sequence of a patient infected with HCV genotype 1b virus (BB7). (See Blight K J et al., Science. 2000, 290:1972-4). The NS5B consensus sequence was cloned and expressed in E. coli as a histidine tagged ([…]) fusion protein, of which the carboxyl terminal 21 amino acids were removed to enhance its solubility.
# In addition to evaluating its activity in the replicon assay, as described above, the BZF of Example 1 was also evaluated for antiviral activity using this assay.
# [3] = Day 14, BZF 100 mg, all genotypes
# [4] = Day 14, BZF 250 mg, all genotypes
# [5] = Day 14, BZF 500 mg, all genotypes
# [6] = Day 14, BZF 1000 mg, all genotypes
smiles,measurement,setting,value
"CNC(=O)c1c(-c2ccc(F)cc2)oc2cc(N(CCO)S(C)(=O)=O)c(C3CC3)cc12 [BZF, 5-cyclopropyl-2-(4-fluoro-phenyl)-6-[(2-hydroxy-ethyl)-methanesulfonyl-amino]-benzofuran-3-carboxylic acid methylamide]",MEAN Δ change from baseline (log HCV RNA level),"[1]; Day 4, BZF 500 mg every 12 hours, all genotypes",−1.43 log
same,MEAN Δ change from baseline (log HCV RNA level),"[1]; Day 7, BZF 500 mg every 12 hours, all genotypes",−1.30 log
same,"% Subjects BQL (below quantification limits, <50 IU/mL)",[1]; [3],0%
same,% Subjects with ≧1.5 log ↓ in log10 HCV RNA,[1]; [3],2 (17%)
same,% Subjects with ≧2 log ↓ in log10 HCV RNA,[1]; [3],0%
same,% Subjects with ≧3 log ↓ in log10 HCV RNA,[1]; [3],0%
same,"% Subjects BQL (below quantification limits, <50 IU/mL)",[1]; [4],0%
same,% Subjects with ≧1.5 log ↓ in log10 HCV RNA,[1]; [4],0%
same,% Subjects with ≧2 log ↓ in log10 HCV RNA,[1]; [4],0%
same,% Subjects with ≧3 log ↓ in log10 HCV RNA,[1]; [4],0%
same,MEAN Δ change from baseline (log HCV RNA level),"[1]; Day 14, BZF 500 mg every 12 hours, all genotypes",−0.64 log
same,"% Subjects BQL (below quantification limits, <50 IU/mL)",[1]; [5],0%
same,% Subjects with ≧1.5 log ↓ in log10 HCV RNA,[1]; [5],1 (8%)
same,% Subjects with ≧2 log ↓ in log10 HCV RNA,[1]; [5],1 (8%)
same,% Subjects with ≧3 log ↓ in log10 HCV RNA,[1]; [5],0%
same,"% Subjects BQL (below quantification limits, <50 IU/mL)","[1]; Day 14, BZF 500 mg, genotype 1",0%
same,% Subjects with ≧1.5 log ↓ in log10 HCV RNA,"[1]; Day 14, BZF 500 mg, genotype 1",1 (13%)
same,% Subjects with ≧2 log ↓ in log10 HCV RNA,"[1]; Day 14, BZF 500 mg, genotype 1",1 (13%)
same,% Subjects with ≧3 log ↓ in log10 HCV RNA,"[1]; Day 14, BZF 500 mg, genotype 1",0%
same,"% Subjects BQL (below quantification limits, <50 IU/mL)",[1]; [6],0%
same,% Subjects with ≧1.5 log ↓ in log10 HCV RNA,[1]; [6],2 (17%)
same,% Subjects with ≧2 log ↓ in log10 HCV RNA,[1]; [6],2 (17%)
same,% Subjects with ≧3 log ↓ in log10 HCV RNA,[1]; [6],1 (8%)
same,pIC50,[2],> 6.30
